How the values were obtained:
Type in all cases: cell-based
TASK-1 = biological target: T1, TASK-1 (Homo sapiens, UniProt O14649); test: whole-cell patch-clamp of TASK-1 currents in a 293T cell line; conditions: n = 10
T1 construct: expressed in transfected cells
Text: (§1) For recordings of K^+ channel currents, we prepared stable cell lines for TREK-1, TWIK-related acid-sensitive K^+ channel (TASK-1), strongly inwardly rectifying K^+ channel (Kir2.1), and human ether-a-go-go-related gene (HERG-1) channels and transiently expressed other channels in 293T cells using a calcium-phosphate transfection method. For the establishment of the stable lines, we used lentiviral vectors, and the preparation methods for the lentiviral vectors were described in our previous report. TR-1 cells, which stably expressed TREK-1 channel and were grown on a small cover glass (3 × 18 mm), were placed in a recording chamber with an internal volume of 200 μl. Whole-cell currents were recorded in Tyrode solution using an Axopatch 200B amplifier (Axon Instruments, Foster City, CA) at 25°C. Tyrode solution contained (in mM): NaCl 140, KCl 5.4, NaH2PO4 0.33, CaCl2 2, MgCl2 1, HEPES 5, and glucose 5.5 (pH 7.4 adjusted with NaOH). […] Perfusion (100 μl/min) was continued to maintain the water level throughout recordings. pH and osmotic pressure of solutions were measured with a pH meter (Horiba, Kyoto, Japan) and a freezing point osmometer (Knauer, Berlin, Germany), respectively. […]

HERG-1 = biological target: T2, HERG-1 (Homo sapiens, UniProt Q12809); test: whole-cell patch-clamp of HERG-1 tail currents in 293T cells; conditions: outward tail current, n = 5
T2 construct: expressed in transfected cells
Text: as §1

KCNQ-1 = KCNQ-1 (Homo sapiens, UniProt P51787); test: whole-cell patch-clamp of KCNQ-1 currents in 293T cells; conditions: 100 μM (data not shown)
Text: as §1

KCNQ-3 = KCNQ-3 (Homo sapiens, UniProt O43525); test: whole-cell patch-clamp of KCNQ-3 currents in 293T cells; conditions: 100 μM (data not shown)
Text: as §1

T1 sequence (O14649 whole entry, species assumed): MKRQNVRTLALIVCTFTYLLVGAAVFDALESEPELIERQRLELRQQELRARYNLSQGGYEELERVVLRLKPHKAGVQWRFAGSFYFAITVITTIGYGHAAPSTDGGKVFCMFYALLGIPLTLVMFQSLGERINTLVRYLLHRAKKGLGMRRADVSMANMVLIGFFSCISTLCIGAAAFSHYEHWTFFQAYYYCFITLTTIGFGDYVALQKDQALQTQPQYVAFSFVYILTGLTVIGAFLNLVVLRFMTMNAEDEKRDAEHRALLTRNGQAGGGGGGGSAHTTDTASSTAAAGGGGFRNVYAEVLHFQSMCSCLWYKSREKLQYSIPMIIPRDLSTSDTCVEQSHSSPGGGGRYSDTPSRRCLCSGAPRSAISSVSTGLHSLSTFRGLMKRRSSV
T2 sequence (Q12809 whole entry): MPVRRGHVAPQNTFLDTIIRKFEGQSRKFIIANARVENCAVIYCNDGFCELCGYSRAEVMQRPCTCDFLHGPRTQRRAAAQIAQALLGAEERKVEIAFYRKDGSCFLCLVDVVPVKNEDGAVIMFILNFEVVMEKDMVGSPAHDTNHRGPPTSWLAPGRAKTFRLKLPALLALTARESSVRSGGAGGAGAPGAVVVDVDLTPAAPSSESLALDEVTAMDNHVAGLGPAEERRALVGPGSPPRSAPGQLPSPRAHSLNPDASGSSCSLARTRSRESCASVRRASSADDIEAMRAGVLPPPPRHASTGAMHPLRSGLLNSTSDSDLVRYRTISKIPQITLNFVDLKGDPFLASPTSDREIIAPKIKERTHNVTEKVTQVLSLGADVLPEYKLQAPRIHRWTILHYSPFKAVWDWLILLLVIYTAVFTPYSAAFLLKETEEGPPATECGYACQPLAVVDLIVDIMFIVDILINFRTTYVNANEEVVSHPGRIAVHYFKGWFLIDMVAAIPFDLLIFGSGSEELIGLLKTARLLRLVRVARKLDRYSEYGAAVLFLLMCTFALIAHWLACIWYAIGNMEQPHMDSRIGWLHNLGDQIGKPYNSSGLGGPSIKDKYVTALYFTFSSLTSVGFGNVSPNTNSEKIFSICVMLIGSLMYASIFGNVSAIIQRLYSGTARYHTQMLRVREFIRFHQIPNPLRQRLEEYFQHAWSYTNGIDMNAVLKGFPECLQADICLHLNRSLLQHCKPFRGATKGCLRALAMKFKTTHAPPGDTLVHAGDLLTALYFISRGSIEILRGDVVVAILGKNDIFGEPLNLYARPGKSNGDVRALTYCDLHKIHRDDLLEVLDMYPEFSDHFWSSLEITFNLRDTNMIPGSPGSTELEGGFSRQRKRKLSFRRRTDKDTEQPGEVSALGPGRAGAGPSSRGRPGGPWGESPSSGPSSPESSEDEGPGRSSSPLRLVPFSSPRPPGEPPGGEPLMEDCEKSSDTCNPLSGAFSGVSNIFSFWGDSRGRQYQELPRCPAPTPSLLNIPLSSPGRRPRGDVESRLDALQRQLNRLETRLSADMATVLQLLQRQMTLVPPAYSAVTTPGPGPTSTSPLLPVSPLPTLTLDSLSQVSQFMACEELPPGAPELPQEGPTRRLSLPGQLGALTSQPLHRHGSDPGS

Compound: CC(C)=CCC/C(C)=C/Cc1cc2ccc(=O)oc2cc1O [ostruthin]
- IC50 (TASK-1): 41 µM
- IC50 (HERG-1): 216 µM
- effect on KCNQ-1 channels (KCNQ-1): no effect
- effect on KCNQ-3 channels (KCNQ-3): no effect

— article PMC6093650, “Antidepressive and anxiolytic effects of ostruthin, a TREK-1 channel activator” (PLoS ONE, 2018)
